{"source": "ChEMBL document CHEMBL5335813", "about": "“Gausemycin Antibiotic Family Acts via Ca2+-Dependent Membrane Targeting” (2024)", "key": {"[1]": {"test_system": "Lipid bilayer", "assay": "Induction of pore formation in anionic TOCL lipid bilayer membrane model at 1 to 100 ug/ml in presence of CaCl2", "conditions": "dose 1-100 µg/ml"}, "[2]": {"test_system": "Staphylococcus aureus", "assay": "Antimicrobial activity against Staphylococcus aureus ATCC 29213 assessed as microbial growth inhibition in presence of (B4O7)2- by susceptibility testing method", "assay_type": "functional"}, "[3]": {"test_system": "Staphylococcus aureus", "assay": "Antimicrobial activity against Staphylococcus aureus ATCC 29213 assessed as microbial growth inhibition at pH 10 by susceptibility testing method", "assay_type": "functional"}, "[4]": {"test_system": "Staphylococcus aureus", "assay": "Antimicrobial activity against Staphylococcus aureus ATCC 29213 assessed as microbial growth inhibition at pH 7 by susceptibility testing method", "assay_type": "functional"}, "[5]": {"test_system": "Staphylococcus aureus", "assay": "Antimicrobial activity against Staphylococcus aureus ATCC 29213 assessed as microbial growth inhibition in presence of Cu2+ by susceptibility testing method", "assay_type": "functional"}, "[6]": {"test_system": "Staphylococcus aureus", "assay": "Antimicrobial activity against Staphylococcus aureus ATCC 29213 assessed as microbial growth inhibition in presence of (CH3CO2)- by susceptibility testing method", "assay_type": "functional"}, "[7]": {"test_system": "Staphylococcus aureus", "assay": "Antimicrobial activity against Staphylococcus aureus ATCC 29213 assessed as microbial growth inhibition at pH 7.4 by susceptibility testing method", "assay_type": "functional"}, "[8]": {"test_system": "Staphylococcus aureus", "assay": "Antimicrobial activity against Staphylococcus aureus ATCC 29213 assessed as microbial growth inhibition in presence of Mn2+ by susceptibility testing method", "assay_type": "functional"}, "[9]": {"test_system": "Pseudomonas aeruginosa", "assay": "Antimicrobial activity against Pseudomonas aeruginosa assessed as microbial growth inhibition in presence of Ca2+ by susceptibility testing method", "assay_type": "functional, organism-based"}, "[10]": {"test_system": "Staphylococcus aureus", "assay": "Antimicrobial activity against Staphylococcus aureus ATCC 29213 assessed as microbial growth inhibition in presence of Ca2+ by susceptibility testing method", "assay_type": "functional"}, "[11]": {"test_system": "Staphylococcus aureus", "assay": "Antimicrobial activity against Staphylococcus aureus ATCC 29213 assessed as microbial growth inhibition at pH 8 by susceptibility testing method", "assay_type": "functional"}, "[12]": {"test_system": "Macrococcus caseolyticus", "assay": "Antimicrobial activity against Macrococcus caseolyticus assessed as microbial growth inhibition in presence of Ca2+ by susceptibility testing method", "assay_type": "functional, organism-based", "conditions": "Macrococcoides caseolyticum"}, "[13]": {"test_system": "Lipid bilayer", "assay": "Induction of pore formation in anionic TOCL lipid bilayer membrane model at 1 to 100 ug/ml", "conditions": "dose 1-100 µg/ml"}, "[14]": {"test_system": "Lipid bilayer", "assay": "Induction of pore formation in zwitter-ionic DOPC lipid bilayer membrane model at 1 to 100 ug/ml", "conditions": "dose 1-100 µg/ml"}, "[15]": {"test_system": "Lipid bilayer", "assay": "Induction of pore formation in anionic DPhPG lipid bilayer membrane model at 1 to 100 ug/ml in presence of CaCl2", "conditions": "dose 1-100 µg/ml"}, "[16]": {"test_system": "Micrococcus luteus", "assay": "Antimicrobial activity against Micrococcus luteus assessed as microbial growth inhibition in presence of Ca2+ by susceptibility testing method", "assay_type": "functional, organism-based"}, "[17]": {"test_system": "Lipid bilayer", "assay": "Induction of pore formation in cationic DOPC/DOTAP lipid bilayer membrane model at 1 to 100 ug/ml", "conditions": "dose 1-100 µg/ml"}, "[18]": {"test_system": "Escherichia coli", "assay": "Antimicrobial activity against Escherichia coli expressing delta-tolC/KanR assessed as microbial growth inhibition in presence of Ca2+ by susceptibility testing method", "assay_type": "functional, organism-based"}, "[19]": {"test_system": "Staphylococcus aureus", "assay": "Antimicrobial activity against Staphylococcus aureus ATCC 29213 assessed as microbial growth inhibition at pH 5 by susceptibility testing method", "assay_type": "functional"}, "[20]": {"test_system": "Lipid bilayer", "assay": "Induction of pore formation in anionic TMoCL lipid bilayer membrane model at 1 to 100 ug/ml", "conditions": "dose 1-100 µg/ml"}, "[21]": {"test_system": "Staphylococcus aureus", "assay": "Antimicrobial activity against Staphylococcus aureus ATCC 29213 assessed as microbial growth inhibition in presence of K+ by susceptibility testing method", "assay_type": "functional"}, "[22]": {"test_system": "Lipid bilayer", "assay": "Induction of pore formation in anionic TMoCL lipid bilayer membrane model assessed as pore-forming threshold concentration"}, "[23]": {"test_system": "Staphylococcus aureus", "assay": "Antimicrobial activity against Staphylococcus aureus ATCC 29213 assessed as microbial growth inhibition by susceptibility testing method", "assay_type": "functional"}, "[24]": {"test_system": "Bacillus cereus", "assay": "Antimicrobial activity against Bacillus cereus X1 assessed as microbial growth inhibition in presence of Ca2+ by susceptibility testing method", "assay_type": "functional, organism-based"}, "[25]": {"test_system": "Staphylococcus aureus", "assay": "Antimicrobial activity against Staphylococcus aureus ATCC 29213 assessed as microbial growth inhibition in presence of <=200 mM of (H2PO4)-/(HPO4)2- by susceptibility testing method", "assay_type": "functional, organism-based"}, "[26]": {"test_system": "Staphylococcus aureus", "assay": "Antimicrobial activity against Staphylococcus aureus ATCC 29213 assessed as microbial growth inhibition in presence of (HCO3)- by susceptibility testing method", "assay_type": "functional"}, "[27]": {"test_system": "Lipid bilayer", "assay": "Induction of pore formation in anionic DOPC/DOPG lipid bilayer membrane model at 1 to 100 ug/ml", "conditions": "dose 1-100 µg/ml"}, "[28]": {"test_system": "Staphylococcus aureus", "assay": "Antimicrobial activity against Staphylococcus aureus ATCC 29213 assessed as microbial growth inhibition in presence of (H2PO4)-/(HPO4)2- by susceptibility testing method", "assay_type": "functional"}, "[29]": {"test_system": "Staphylococcus aureus", "assay": "Antimicrobial activity against Staphylococcus aureus ATCC 29213 assessed as microbial growth inhibition at pH 6 by susceptibility testing method", "assay_type": "functional"}, "[30]": {"test_system": "Escherichia coli", "assay": "Antimicrobial activity against Escherichia coli BL21 (DE3) assessed as microbial growth inhibition in presence of Ca2+ by susceptibility testing method", "assay_type": "functional, organism-based"}, "[31]": {"test_system": "Staphylococcus aureus", "assay": "Antimicrobial activity against Staphylococcus aureus ATCC 29213 assessed as microbial growth inhibition at pH 9 by susceptibility testing method", "assay_type": "functional"}, "[32]": {"test_system": "Staphylococcus aureus", "assay": "Antimicrobial activity against Staphylococcus aureus ATCC 29213 assessed as microbial growth inhibition in presence of Fe3+ by susceptibility testing method", "assay_type": "functional"}, "[33]": {"test_system": "Lipid bilayer", "assay": "Induction of pore formation in anionic TMoCL lipid bilayer membrane model assessed as pore-forming threshold concentration in presence of CaCl2"}, "[34]": {"test_system": "Staphylococcus aureus", "assay": "Antimicrobial activity against Staphylococcus aureus ATCC 29213 assessed as microbial growth inhibition in presence of Zn2+ by susceptibility testing method", "assay_type": "functional"}, "[35]": {"test_system": "Staphylococcus aureus", "assay": "Antimicrobial activity against Staphylococcus aureus ATCC 29213 assessed as microbial growth inhibition in presence of Mg2+ by susceptibility testing method", "assay_type": "functional"}, "[36]": {"test_system": "Staphylococcus aureus", "assay": "Antimicrobial activity against Staphylococcus aureus ATCC 29213 assessed as microbial growth inhibition in presence of Na+ by susceptibility testing method", "assay_type": "functional"}, "[37]": {"test_system": "Lipid bilayer", "assay": "Induction of pore formation in anionic DOPC/DOPG lipid bilayer membrane model at 1 to 100 ug/ml in presence of CaCl2", "conditions": "dose 1-100 µg/ml"}, "[38]": {"test_system": "Staphylococcus aureus", "assay": "Antimicrobial activity against Staphylococcus aureus ATCC 29213 assessed as microbial growth inhibition measured after 18 hrs by CLSI based broth microdilution method", "assay_type": "functional"}, "[39]": {"test_system": "Lipid bilayer", "assay": "Induction of pore formation in cationic DOPC/DOTAP lipid bilayer membrane model at 1 to 100 ug/ml in presence of CaCl2", "conditions": "dose 1-100 µg/ml"}, "[40]": {"test_system": "Lipid bilayer", "assay": "Induction of pore formation in anionic DPhPG lipid bilayer membrane model at 1 to 100 ug/ml", "conditions": "dose 1-100 µg/ml"}}, "note": "Activity calls are given as the source filed them."}
{"smiles": "CC(C)/C=C/C=C\\C(=O)NCCC(=O)N[C@@H](CCCN)C(=O)NC(CC(O)c1ccccc1)C(=O)NC(C(=O)N[C@@H](Cc1ccc(OC2OC[C@H](O)[C@H](O)[C@H]2O)cc1)C(=O)NC1C(=O)N[C@H](CC(C)C)C(=O)N[C@@H](CC(=O)O)C(=O)NCC(=O)N[C@@H](CO)C(=O)NCC(=O)N[C@@H](CC(=O)c2ccc(Cl)cc2N)C(=O)N[C@@H](C)C(=O)N2CCC[C@H]2C(=O)NC1C)C(O)CC(=O)O", "note": "(stereo not given in full)", "values": [{"measurement": "Activity", "setting": "[1]", "value": "Active"}, {"measurement": "MIC", "setting": "[2]", "value": 1, "unit": "µg/mL"}, {"measurement": "MIC", "setting": "[3]", "value": 0.25, "unit": "µg/mL"}, {"measurement": "MIC", "setting": "[4]", "value": 2, "unit": "µg/mL"}, {"measurement": "MIC", "setting": "[5]", "value": 1, "unit": "µg/mL"}, {"measurement": "MIC", "setting": "[6]", "value": 2, "unit": "µg/mL"}, {"measurement": "MIC", "setting": "[7]", "value": 1, "unit": "µg/mL"}, {"measurement": "MIC", "setting": "[8]", "value": 1, "unit": "µg/mL"}, {"measurement": "inhibition", "setting": "[9]", "value": "inactive"}, {"measurement": "MIC", "setting": "[10]", "value": 0.125, "unit": "µg/mL"}, {"measurement": "MIC", "setting": "[11]", "value": 1, "unit": "µg/mL"}, {"measurement": "inhibition", "setting": "[12]", "value": "Active"}, {"measurement": "Activity", "setting": "[13]", "value": "Active"}, {"measurement": "Activity", "setting": "[14]", "value": "inactive"}, {"measurement": "Activity", "setting": "[15]", "value": "Active"}, {"measurement": "inhibition", "setting": "[16]", "value": "Active"}, {"measurement": "Activity", "setting": "[17]", "value": "Active"}, {"measurement": "inhibition", "setting": "[18]", "value": "inactive"}, {"measurement": "MIC", "setting": "[19]", "value": 4, "unit": "µg/mL"}, {"measurement": "Activity", "setting": "[20]", "value": "Active"}, {"measurement": "MIC", "setting": "[21]", "value": 1, "unit": "µg/mL"}, {"measurement": "Activity", "setting": "[22]", "value": 10, "unit": "µg/mL"}, {"measurement": "MIC", "setting": "[23]", "value": 1, "unit": "µg/mL"}, {"measurement": "inhibition", "setting": "[24]", "value": "Active"}, {"measurement": "Activity", "setting": "[25]", "value": "inactive"}, {"measurement": "MIC", "setting": "[26]", "value": 0.5, "unit": "µg/mL"}, {"measurement": "Activity", "setting": "[27]", "value": "Active"}, {"measurement": "MIC", "setting": "[28]", "value": 4, "unit": "µg/mL"}, {"measurement": "MIC", "setting": "[29]", "value": 4, "unit": "µg/mL"}, {"measurement": "inhibition", "setting": "[30]", "value": "inactive"}, {"measurement": "MIC", "setting": "[31]", "value": 0.5, "unit": "µg/mL"}, {"measurement": "MIC", "setting": "[32]", "value": 1, "unit": "µg/mL"}, {"measurement": "Activity", "setting": "[33]", "value": 7, "unit": "µg/mL"}, {"measurement": "MIC", "setting": "[34]", "value": 1, "unit": "µg/mL"}, {"measurement": "MIC", "setting": "[35]", "value": 1, "unit": "µg/mL"}, {"measurement": "MIC", "setting": "[36]", "value": 1, "unit": "µg/mL"}, {"measurement": "Activity", "setting": "[37]", "value": "Active"}, {"measurement": "MIC", "setting": "[38]", "value": 1, "unit": "µg/mL"}, {"measurement": "Activity", "setting": "[39]", "value": "Active"}, {"measurement": "Activity", "setting": "[40]", "value": "Active"}]}
